Measurements taken from patent US11351178B2, “Selective HDAC6 inhibitors” (ITALFARMACO S.P.A., priority 2017, dated 2022).
Like-named read-outs stand apart in the source and are kept apart here.

Tests used:
[1] = Stability in human plasma; type: in vitro ADME; conditions: after 4 hours, 37° C.
Procedure: In order to evaluate the stability to circulating enzymes, test compounds were incubated in human and rat plasma at 37° C. in a thermostated oscillating bath. Each test compound was incubated at μM (50 μM when the samples were analysed by UV/HPLC, 1 or 2 μM when the samples were analysed by LC-MS/MS) concentration for 0, 15, 30 min and 1, 2 and 4 hours. The reaction was stopped placing tubes on ice bath and adding acidified acetonitrile. After centrifugation for 10 minutes at 14000 rpm, an aliquot of the supernatant was diluted with water, filtered with 0.45 μm syringe filters and injected in HPLC-UV or in LC-MS/MS. The percentages of amount remaining at the various times of incubation with respect to initial amount were calculated. The half-life in plasma was also calculated.

recombinant human HDAC6 = target: T1, recombinant human HDAC6 (Homo sapiens, UniProt Q9UBN7); experiment: Enzymatic screening on recombinant human HDAC6; type: biochemical; conditions: Table 2
T1 sequence (Q9UBN7 1-1215): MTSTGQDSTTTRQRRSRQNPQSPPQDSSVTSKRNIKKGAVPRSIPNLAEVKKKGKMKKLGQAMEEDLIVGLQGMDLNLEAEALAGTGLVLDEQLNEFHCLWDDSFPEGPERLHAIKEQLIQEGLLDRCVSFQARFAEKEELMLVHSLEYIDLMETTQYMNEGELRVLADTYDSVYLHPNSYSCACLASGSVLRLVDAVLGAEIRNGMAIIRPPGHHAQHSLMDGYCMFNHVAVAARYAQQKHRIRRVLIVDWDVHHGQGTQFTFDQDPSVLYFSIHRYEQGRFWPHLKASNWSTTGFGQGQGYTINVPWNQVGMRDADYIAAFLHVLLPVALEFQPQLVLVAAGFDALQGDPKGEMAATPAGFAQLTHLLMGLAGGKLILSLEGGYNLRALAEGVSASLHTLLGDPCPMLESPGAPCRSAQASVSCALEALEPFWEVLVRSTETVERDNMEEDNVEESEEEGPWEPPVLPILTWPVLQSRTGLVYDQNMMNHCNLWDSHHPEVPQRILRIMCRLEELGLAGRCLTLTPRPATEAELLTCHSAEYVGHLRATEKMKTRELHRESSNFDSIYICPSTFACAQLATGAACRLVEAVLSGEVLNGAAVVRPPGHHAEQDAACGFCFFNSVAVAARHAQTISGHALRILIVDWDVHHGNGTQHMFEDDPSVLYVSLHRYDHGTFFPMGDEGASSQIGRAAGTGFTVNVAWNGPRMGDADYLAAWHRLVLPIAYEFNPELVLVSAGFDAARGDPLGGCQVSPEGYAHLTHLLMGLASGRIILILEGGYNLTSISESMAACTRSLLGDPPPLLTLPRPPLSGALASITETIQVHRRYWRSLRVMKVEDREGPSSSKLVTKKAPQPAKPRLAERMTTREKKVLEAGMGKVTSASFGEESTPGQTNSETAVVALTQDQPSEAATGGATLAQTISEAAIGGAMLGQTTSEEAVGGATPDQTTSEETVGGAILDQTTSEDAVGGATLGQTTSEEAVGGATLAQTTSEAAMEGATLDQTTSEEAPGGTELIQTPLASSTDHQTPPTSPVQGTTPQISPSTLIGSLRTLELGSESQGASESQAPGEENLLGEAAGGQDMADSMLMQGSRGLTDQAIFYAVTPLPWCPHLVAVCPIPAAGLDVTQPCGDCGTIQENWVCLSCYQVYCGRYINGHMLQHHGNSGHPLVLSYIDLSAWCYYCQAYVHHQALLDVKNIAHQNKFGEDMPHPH
Summary of the method: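 Recombinant human enzyme was incubated with compound at 30 °C for an isoform-dependent time, then substrate (FLUOR DE LYS, FLUOR DE LYS-Green or trifluoroacetyl-L-lysine) was added as a 2× solution in 25 mM Tris-HCl pH 8, 130 mM NaCl, 0.05% Tween-20, 10% glycerol. The deacetylation reaction then proceeded at 30 °C.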

[2] = test system: B 697 promyelocytic cell line; experiment: Cytotoxicity on 697 cell line (CellTiter 96); type: cell-based; conditions: 72 hours incubation, read-out: 697 TOXICITY
Summary of the method: (§1)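 Cells seeded (2×10^4/well for 697, 5×10^5/well for PBMCs); compounds added after 24 h at 1–10000 nM (697) or 1.5–10000 nM (PBMCs) and incubated 72 h. Viability read by CellTiter 96 Aqueous One tetrazolium assay of mitochondrial function.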

[3] = Stability to Phase I metabolism in rat S9 liver fraction; type: in vitro ADME; conditions: after 90 min, 37° C.
Summary of the method: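 Compounds were incubated with rat or human liver S9 fraction at 37 °C for up to 90 min. Reactions were quenched on ice with acidified acetonitrile and analysed by HPLC-UV or LC-MS/MS. Percent remaining versus time zero and intrinsic clearance were calculated.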

[4] = test system: peripheral blood mononuclear cells (PBMCs); experiment: Cytotoxicity on PBMCs (CellTiter 96); type: cell-based; conditions: PBMC, 72 h; read-out: PBMC TOXICITY (72 h)
Summary of the method: as §1

Stability in rat plasma = type: in vitro ADME; conditions: after 4 hours, 37° C.
Summary of the method: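 Compounds incubated at 37° C in rat or human plasma at 50 μM (UV/HPLC) or 1 or 2 μM (LC-MS/MS) for 0–4 h. Reaction stopped with acidified acetonitrile on ice; percent remaining versus initial amount and plasma half-life calculated.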

[5] = Stability to Phase I metabolism in human S9 liver fraction; type: in vitro ADME
Procedure: Test compounds were incubated in rat and human liver S9 fraction at 37° C. up to 90 minutes in order to evaluate their stability to Phase I metabolism by hepatic enzymes. […] The reaction was stopped placing samples on ice bath and adding acidified acetonitrile. After centrifugation (10 minutes at 14000 rpm) an aliquot of the supernatant was diluted water, filtered with 0.45 μm regenerated cellulose syringe filters and injected in HPLC-UV or in LC-MS/MS. The percentages of the amount remaining at the various incubation times with respect to the initial amount were calculated. The intrinsic clearance was also calculated.

[6] = human liver S9 fraction, after 90 min, 37° C.

| residual percentage in human plasma [1] [%] | IC50 (recombinant human HDAC6; read-out: HDAC6 IC50) [nM] | residual percentage in rat S9 fraction [3] [%] | residual percentage in rat plasma (Stability in rat plasma) [%] | residual percentage in human S9 fraction ([5]; human, 90 min, pH 7.4) [%] | SMILES | IC50 [2] [nM] | IC50 [4] [nM] | residual percentage in human S9 fraction [5, 6] [%] | IC50 (recombinant human HDAC6; HDAC6 IC50 (nM)) [nM] |
| --- | --- | --- | --- | --- | --- | --- | --- | --- | --- |
| 77 | 8 | 88 | 38 | 87 | Cn1c(Sc2c(F)cc(C(=O)NO)cc2F)nnc1-c1ccccn1 [comp. 14, 3,5-difluoro-N-hydroxy-4-((4-methyl-5-(pyridin-2-yl)-4H-1,2,4-triazol-3-yl)thio)benzamide] | 3940 | > 10000 |  |  |
| 95 | 14 | 58 | 94 | 74 | Cn1c(Sc2c(F)cc(C(=O)NO)cc2F)nnc1-c1coc(CN2CCOCC2)c1 [comp. 203, 3,5-difluoro-4-[[4-methyl-5-[5-(morpholinomethyl)-3-furyl]-1,2,4-triazol-3-yl]sulfanyl]benzenecarbohydroxamic acid] | 15200 | > 10000 |  |  |
| 79 | 7 | 71 | 84 | 80 | Cn1c(Sc2c(F)cc(C(=O)NO)cc2F)nnc1-c1ccc(CCN2CCCC2)nc1 [comp. 210, 3,5-difluoro-4-[[4-methyl-5-[6-(2-pyrrolidin-1-ylethyl)-3-pyridyl]-1,2,4-triazol-3-yl]sulfanyl]benzenecarbohydroxamic acid] | 10400 | > 10000 |  |  |
| 97 | 13 | 58 | 80 | 63 | CCN(CC)Cc1cc(-c2nnc(Sc3c(F)cc(C(=O)NO)cc3F)n2C)c(C)o1 [comp. 213, 4-[[5-[5-(diethylaminomethyl)-2-methyl-3-furyl]-4-methyl-1,2,4-triazol-3-yl]sulfanyl]-3,5-difluoro-benzenecarbohydroxamic acid] | 15400 |  |  |  |
| 92 | 3 | 9 | 60 | 73 | O=C(NO)c1ccc(Cn2nnc(-c3ccccc3)n2)cc1 [comp. 214, 4-[(5-phenyltetrazol-2-yl)methyl]benzenecarbohydroxamic acid] | 409 |  |  |  |

Continued, compound first:

| SMILES | residual percentage in human plasma [1] [%] | IC50 (recombinant human HDAC6; read-out: HDAC6 IC50) [nM] | residual percentage in rat S9 fraction [3] [%] | residual percentage in rat plasma (Stability in rat plasma) [%] | residual percentage in human S9 fraction ([5]; human, 90 min, pH 7.4) [%] | IC50 [2] [nM] | IC50 [4] [nM] | residual percentage in human S9 fraction [5, 6] [%] | IC50 (recombinant human HDAC6; HDAC6 IC50 (nM)) [nM] |
| --- | --- | --- | --- | --- | --- | --- | --- | --- | --- |
| CN(C)S(=O)(=O)c1cccc(-c2nnc(Cc3ccc(C(=O)NO)cc3)o2)c1 [comp. 3, 4-((5-(3-(N,N-dimethylsulfamoyl)phenyl)-1,3,4-oxadiazol-2-yl)methyl)-N-hydroxybenzamide] | 100 | 11 | 66 | 79 | 93 | 2880 | 735 |  |  |
| O=C(NO)c1cc(F)c(Cn2nnc(-c3ncccn3)n2)c(F)c1 [comp. 7] | 93 |  | 96 | 77 |  | 4190 | 10000 | 89 |  |
| O=C(NO)c1ccc(Cn2nnnc2-c2ccccn2)cc1 [comp. 20, N-hydroxy-4-((5-(pyridin-2-yl)-1H-tetrazol-1-yl)methyl)benzamide] | 94.3 | 4 | 88 | 98.5 | 101.7 | 1120 | 2000 |  |  |
| Cc1cc(-c2nnc(Sc3c(F)cc(C(=O)NO)cc3F)n2C)nn1C [comp. 100, 4-[[5-(1,5-dimethylpyrazol-3-yl)-4-methyl-1,2,4-triazol-3-yl]sulfanyl]-3,5-difluoro-benzenecarbohydroxamic acid] | 92 |  | 30 | 80 |  | 7090 | 10000 | 76 | 7 |
| CN1CCN(Cc2ccc(-c3nnc(Sc4ccc(C(=O)NO)cc4)n3C)o2)CC1 [comp. 209, 4-[[4-methyl-5-[5-[(4-methylpiperazin-1-yl)methyl]-2-furyl]-1,2,4-triazol-3-yl]sulfanyl]benzenecarbohydroxamic acid] | 77 | 11 | 84 | 69 | 100 | 15400 |  |  |  |
| Cn1c(Sc2c(F)cc(C(=O)NO)cc2F)nnc1-c1ccc(CN2CCCCC2)o1 [comp. 212, 3,5-difluoro-4-[[4-methyl-5-[5-(1-piperidylmethyl)-2-furyl]-1,2,4-triazol-3-yl]sulfanyl]benzenecarbohydroxamic acid] | 83 | 6 | 60 | 81 | 75 | 15400 |  |  |  |
| CC1(C)CC(=O)c2c(S(C)(=O)=O)sc(-c3nnn(Cc4ccc(C(=O)NO)cc4)n3)c2C1 [compound 74] | 100 | 17 | 61 | 94 | 84 | 2280 | 2000 |  |  |
| CN(C)S(=O)(=O)c1ccc(F)c(-c2nnc(Sc3ccc(C(=O)NO)cc3)n2C)c1 [compound 76] | 96 | 28 | 76 | 98 | 77 | > 10000 | > 10000 |  |  |
| O=C(NO)c1ccc(Cc2noc(-c3ccccc3)n2)cc1 [compound 189, 4-[(5-phenyl-1,2,4-oxadiazol-3-yl)methyl]benzenecarbohydroxamic acid] | 100 | 9 | 5 | 78 | 72 | 291 | 1050 |  |  |
